Reference: patent US20160287553A1, “TRANSLATION INHIBITORS IN HIGH-DOSE CHEMO- AND/OR HIGH-DOSE RADIOTHERAPY” (DEUTSCHES KREBSFORSCHUNGSZENTRUM, priority 2013, published 2016)

Columns and labels:
Primary human T cells = assay: Ionizing radiation (IR)-induced apoptosis in T cells; assay type: cell-based; conditions: 24 h, increasing doses of IR, different concentrations of FL3 (FIG. 8b)
Experimental: (§1) DNA fragmentation was determined by FACS.
The radioprotective effect mediated by Roc-A was the highest when cells were treated with Roc-A 1 h before radiation of cells (FIG. 1d). However, when cells were treated 4 h after radiation, the radioprotective effect was still higher than 50% (FIG. 1d).

Peripheral blood T cells = assay: Etoposide-induced apoptotic cell death of T cells (DNA fragmentation, AnnexinV, FSC/SSC); conditions: for Protection of normal T cells from Etoposide-induced cell death by Roc-derivatives: 50 μM Etoposide, 75 nM Roc-derivative, 24 h (FIG. 6b)
Experimental: The human malignant cell lines EU-3 (acute lymphoblastic leukemia), DND-41 (T cell leukemia), Hut-78 (T cell lymphoma), SKW6.4 (B cell leukemia), Reh (acute lymphoblastic leukemia), IM-9 (Chronic myeloid leukemia), HL-60 (promyelocytic leukemia), L1236 (Hodgkin's lymphoma) and NCI-H209 (small cell lung cancer) were cultured at 37° C. with 5% CO2 in RPMI-1640 medium (Sigma-Aldrich, Munich, Germany) supplemented with 10% FCS, 100 U/ml Penicillin (Sigma-Aldrich, Munich, Germany) and 100 μg/ml Streptamycin (Sigma-Aldrich, Munich, Germany) SCLC-21H cells (small cell lung cancer) were cultured in DMEM medium (Sigma-Aldrich, Munich, Germany) supplemented with 10% FCS. Peripheral blood T lymphocytes were isolated as previously described (Klas et al., Int Immunol. 1993; 5: 625-630). B lymphocytes and NK cells were isolated by magnetic activated cell sorting using “B cell isolation kit II” (Miltenyi Biotech, Bergisch Gladbach, Germany) and “NK cell isolation kit, human” (Miltenyi Biotech, Bergisch Gladbach, Germany), respectively, according to the manufacturer's instructions. Human neutrophils were separated from peripheral blood mononuclear cells by Ficoll-Paque density centrifugation, followed by incubation in 1.05% dextran for 30 min at room temperature. Remaining erythrocytes were lysed by resuspension in ice-cold 0.2% sodium chloride solution. After 1 min ice-cold 1.6% sodium-chloride solution was added and lysis was stopped by addition of PBS and neutrophils were resuspended in medium at a concentration of 2×10^6 cells/ml. Human primary cardiomyocytes were purchased from PromoCell (Heidelberg, Germany) and cultured in Myocyte Growth Medium (PromoCell, Heidelberg, Germany). Remaining primary human cells were cultured in RPMI-1640 medium with the same conditions described above.
Apoptotic cell death was determined by AnnexinV staining, cellular forward scatter/side scatter (FSC/SSC) profile, or DNA fragmentation. For AnnexinV staining, 2×10^5 cells were treated with different drugs for indicated time periods, washed with AnnexinV binding buffer (0.01 M Hepes, 0.14 M NaCl, 2.5 mM CaCl2), and stained with AnnexinV-FITC antibody (Immunotools, Friesoythe, Germany) and 7-amino-actinomycin D (Sigma-Aldrich, Munich, Germany) for 30 min at 4° C. The amount of AnnexinV positive cells was determined by FACS measurement. DNA fragmentation was determined according to the method of Nicoletti (Nicoletti et al., J Immunol Methods. 1991; 139: 271-279). Briefly, 2×10^5 cells were treated as indicated, washed with PBS and lysed in Nicoletti buffer (0.1% sodium citrate, 0.1% Triton X-100, 50 μg/ml propidium iodide). DNA fragmentation was determined by FACS. Apoptosis-like cells were determined by forward scatter and side scatter (FSC/SSC) index. Specific DNA fragmentation/specific AnnexinV positive cells/specific apoptosis was calculated as follows: (percentage of experimental DNA fragmentation (or Annexin V positive cells or apoptosis)−percentage of spontaneous DNA fragmentation (or Annexin V positive cells or apoptosis)/(100−percentage of spontaneous DNA fragmentation (or Annexin V positive cells or apoptosis))×100.

ERK = conditions: Polier et al., op. cit.; cited from earlier work
[1] = system: protein synthesis in T cells; assay: Translation assay: [35S]methionine incorporation in T cells; assay type: cell-based, human; conditions: T cells (FIG. 6b)
Experimental: The relative amount of protein synthesis was determined by measuring the amount of incorporation of ^35S-methionine into the protein. Briefly, cells were pre-cultured in methionine-free medium (supplemented with 10% dialyzed FCS) for 3 h, followed by incubation with 3.5 μCi of ^35S-methionine-labeling mix (PerkinElmer, Waltham, Mass., USA) per 8×10^5 cells for 6 h as indicated. After the treatment, cells were washed twice with ice-cold PBS and lysed in RIPA buffer. 50 μl of each lysate were added to 1 ml of Liquid Scintillation Cocktail solution (Beckman Coulter, Brea, Calif., USA) and the amount of incorporated radioactivity was determined by liquid scintillation counting.
Roc-A has been well documented to inhibit protein translation (Polier et al., Chem Biol. 2012; 19: 1093-1104; Sadlish et al., ACS Chem Biol. 2013; doi:10.1021/cb400158t; Bleumink et al., Cell Death Differ. 2011; 18: 362-370; Cencic et al., PloS one. 2009; 4: e5223). Thus, we expected that Roc-A-mediated suppression of genotoxin-induced p53 upregulation may be regulated by inhibition of p53 protein synthesis.

p53 = p53 protein expression by immunoblot; assay type: cell-based, human; conditions: T cells, 100 nM Bortezomib
Experimental: Immunoblot analysis was carried out as previously described (Polier et al., Chem Biol. 2012; 19: 1093-1104). Briefly, 4-20×10^6 cells were treated with different reagents as indicated and lysed in RIPA buffer (50 mM Tris HCl, 137 mM NaCl, 0.5% Na Deoxycholate, 1% Triton X-100, 0.1% SDS, protease inhibitors). Proteins were separated by SDS-PAGE and transferred to a nitrocellulose membrane (Amersham Biosciences, Little Chalfon, UK) using a semi-dry blotting approach. The following antibodies were used: p53 (DO-1) antibody was purchased from Santa Cruz Biotechnology (Heidelberg, Germany). Tubulin and actin (A5441) antibodies were purchased from Sigma-Aldrich (St. Louis, USA).
The transcription factor p53 is a major regulator of DNA damage-induced apoptosis (Lowe et al., Cell. 1993; 74: 957-967). Therefore, we investigated the effect of Roc-A on the expression level of p53.
p53 protein expression can be regulated at the level of transcription, translation, and ubiquitination-mediated degradation (Marine & Lozano, Cell Death Differ. 2010; 17: 93-102). It has been shown that upon DNA damage p53 undergoes post-translational modifications leading to its deubiquitination and, thus, stabilization (Lee & Gu, Cell Death Differ. 2010; 17: 86-92). To investigate whether Roc-A could decrease p53 stability, we treated T cells with the proteasome inhibitor Bortezomib to block proteasome-mediated degradation.

malignant cells = assay: Fold change in cell death on raising the Etoposide dose, malignant cells (FIG. 9a-b); assay type: cell-based; conditions: Etoposide from 6.25 μM to 50 μM, 24 h, solvent (FIG. 9a)
Experimental: (§2) (a) Cells from (b) were grouped into malignant and non-malignant cells. Shown are means of three independent experiments. Abbreviations; HSPCs=hematopoietic stem and progenitor cells. (c-d) Malignant and non-malignant cells were exposed to ionizing radiation (IR) in the presence of 75 nM Roc-A or solvent (DMSO) and cell death was determined after 24 h by DNA fragmentation. Depicted is the fold-change in cell death that was measured when doses of IR were increased from 2 Gy to 10 Gy. (c) Cells from (d) were grouped into malignant and non-malignant cells. Shown are means of three independent experiments.
as §1
(§3) Roc-A specifically prevents the cause of chemotherapeutic and radiation-induced side-effects, i.e., the death of healthy cells. […] Consequently, high-dose therapy is not possible, as side effects would be too high.

non-malignant cells = assay: Fold change in cell death on raising the Etoposide dose, non-malignant cells (FIG. 9a-b); assay type: cell-based; conditions: Etoposide from 6.25 μM to 50 μM, 24 h, solvent (FIG. 9a)
Experimental: as §2, §1, §3

Compound	Inhibitory effect on ERK activity / activation (ERK)	Protection of normal T cells from Etoposide-induced cell death by Roc-derivatives (Peripheral blood T cells)	Inhibition of [35S]methionine incorporation (protein translation) [1]	also measured
COc1cc(OC)c2c(c1)O[C@@]1(c3ccc(Br)cc3)[C@H](c3ccccc3)C[C@@H](O)[C@@]21O (racemic) [FL3, racemic bromo-demethoxy-rocaglaol]	–	–	–	Protection of T cells from IR-induced apoptotic cell death by FL3 (Primary human T cells): protects T cells; Protection of T cells from Etoposide-induced apoptotic cell death by FL3 (Peripheral blood T cells; 24 h, increasing doses of Etoposide, different concentrations of FL3 (FIG. 8a)): protects T cells
CNC(=O)[C@H]1[C@@H](O)[C@@]2(O)c3c(OC)cc(OC)cc3O[C@@]2(c2ccc(OC)cc2)[C@@H]1c1ccccc1 [Roc-Q, demethylrocaglamide]	inhibit ERK activation with different efficacies	different levels of protection	inhibited [^35S]methionine incorporation at different degrees	–
COC(=O)C1C(O)C2(O)c3c(OC)cc(OC)cc3OC2(c2ccc3c(c2)OCO3)C1c1ccccc1 (centres unmarked) [Roc-AF, 30,40-methylendioxy-methylrocaglate]	do not show any or very little inhibitory effects on ERK activity	did not protect T cells	did not inhibit protein translation	–
COc1ccc([C@@]23Oc4cc(OC)cc(OC)c4[C@]2(O)[C@H](OC(C)=O)[C@H](C(=O)N(C)C)[C@H]3c2ccccc2)cc1 [Roc-AB, 1-O-acetyl-rocaglamide]	inhibit ERK activation with different efficacies	different levels of protection	inhibited [^35S]methionine incorporation at different degrees	–
COc1cc(OC)c2c(c1)OC1(c3ccc(OC)c(O)c3)C(c3ccccc3)C(C(=O)N(C)C)C(OC(C)=O)C21O (centres unmarked) [Roc-I, C-1-O-acetyl-30-hydroxy-rocaglamide]	do not show any or very little inhibitory effects on ERK activity	did not protect T cells	did not inhibit protein translation	–
CC(C)C[C@H](NC(=O)[C@H](Cc1ccccc1)NC(=O)c1cnccn1)B(O)O [Bortezomib, reference compound]	–	–	–	Interference with Roc-A block of Etoposide-induced p53 upregulation (p53; 50 μM Etoposide, 75 nM Roc-A, 4 h (FIG. 6a)): did also not interfere with the ability of Roc-A to block Etoposide-induced p53 upregulation; p53 level on proteasome inhibition (p53; absence of Roc-A (FIG. 6a)): led to an increase in p53; p53 level on proteasome inhibition (p53; presence of 75 nM Roc-A (FIG. 6a)): could not increase p53
COC(=O)[C@H]1[C@@H](O)[C@@]2(O)c3c(OC)cc(OC)cc3O[C@@]2(c2ccc(OC)c(O)c2)[C@@H]1c1ccccc1 [Roc-J, 30-hydroxyaglafoline]	inhibit ERK activation with different efficacies	different levels of protection	inhibited [^35S]methionine incorporation at different degrees	–
COc1cc(OC)c2c(c1)OC1(c3ccc4c(c3)OCO4)C(c3ccccc3)CC(=O)C21O (centres unmarked) [Roc-AR, 1-oxo-40-demethoxy-30,40-methylenedioxyrocaglaol]	inhibit ERK activation with different efficacies	different levels of protection	inhibited [^35S]methionine incorporation at different degrees	–
COc1cc([C@@H]2c3cc4c(cc3[C@@H](O[C@@H]3O[C@@H]5CO[C@@H](C)O[C@H]5[C@H](O)[C@H]3O)[C@H]3COC(=O)[C@H]23)OCO4)cc(OC)c1O [Etoposide, reference compound]	–	–	–	Increase in Etoposide-induced cell death (malignant cells): approximately 3 fold; Increase in Etoposide-induced cell death (non-malignant cells): up to 3 fold; Cell death of normal T cells by the genotoxin (Peripheral blood T cells; 24 h, increasing concentrations of Etoposide): caused cell death of normal T cells
COC(=O)C1C(OC(C)=O)C2(O)c3c(OC)cc(OC)cc3OC2(c2ccc(OC)cc2)C1c1ccccc1 (centres unmarked) [Roc-AA, C-1-O-acetyl-methylrocaglate]	do not show any or very little inhibitory effects on ERK activity	did not protect T cells	did not inhibit protein translation	–
